The target of one test is T1, hFSH-R (Homo sapiens, UniProt P23945).
T1 construct: expressed in transfected cells; host or cells: CHO-3D2 cells
T1 sequence (P23945 18-695): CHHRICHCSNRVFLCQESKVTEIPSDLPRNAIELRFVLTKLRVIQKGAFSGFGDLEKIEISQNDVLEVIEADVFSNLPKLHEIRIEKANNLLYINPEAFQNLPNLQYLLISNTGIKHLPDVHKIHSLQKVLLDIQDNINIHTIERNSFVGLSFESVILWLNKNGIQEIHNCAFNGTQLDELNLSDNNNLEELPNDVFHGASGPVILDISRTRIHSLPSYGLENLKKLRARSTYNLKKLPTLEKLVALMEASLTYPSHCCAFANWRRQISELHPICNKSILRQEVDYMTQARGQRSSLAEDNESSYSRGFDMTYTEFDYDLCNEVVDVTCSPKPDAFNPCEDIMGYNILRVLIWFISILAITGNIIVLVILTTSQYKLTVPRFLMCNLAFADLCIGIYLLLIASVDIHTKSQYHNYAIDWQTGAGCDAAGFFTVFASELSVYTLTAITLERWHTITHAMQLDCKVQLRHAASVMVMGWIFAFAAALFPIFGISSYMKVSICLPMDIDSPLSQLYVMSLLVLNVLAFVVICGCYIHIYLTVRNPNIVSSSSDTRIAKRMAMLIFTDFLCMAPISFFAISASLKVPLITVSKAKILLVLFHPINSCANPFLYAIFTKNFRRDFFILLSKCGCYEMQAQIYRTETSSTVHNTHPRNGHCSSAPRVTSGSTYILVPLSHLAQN
In words: cAMP accumulation bio-assay in CHO-3D2 cells (hFSH-R), RIA. The test is classed as cell-based. The method, then: The compounds were subsequently diluted in sterile assay medium consisting of Opti-MEM® I (Life Technologies) with 0.1% (w/v) BSA (Sigma), prior to use in the bio-assay. The final concentration of DMSO in the assay is 0.1%.
Plated cells are then incubated at 37° C. in a humidified 5% CO2/95% air, atmosphere.
On the day of the assay, cells were washed three times with 100 μl/well of assay medium consisting of Opti-MEM® I (Life Technologies) with 0.1% (w/v) BSA (Sigma). Medium was removed and 100 μl of assay medium was added to each well. Plates were incubated for an additional 30 minutes at 37° C. […] Reactions were terminated by the addition of 50 μl of 0.2N hydrochloric acid to each well and cAMP-accumulation was measured by radioimmunoassay (RIA) using a commercially available kit (Amersham).
All test compounds were evaluated in a dose-response paradigm ranging from 0.01 to 30 μM. Controls and test compounds were evaluated in quadruplicate in a 96-well format.
Data were analyzed by one-way analysis of variance and significant differences between treatments and control determined by Least Significant Difference test.
Test compounds were compared to the effect of purified human FSH.

For a further test, the target named is T2, human FSH receptor (Homo sapiens, UniProt P23945).
T2 construct: host or cells: CHO-K1 (CHO FSH-R 6CRE-Luc, 1D7 cells)
T2 sequence (P23945 18-695): T1 sequence (P23945 18-695)
In words: FSH receptor-dependent CRE-luciferase reporter gene assay (CHO FSH-R 6CRE-Luc cells). The test is classed as cell-based. Particulars: dose-response in presence of EC50 of purified human FSH; read-out: CRE IC50. An excerpt: Follicle-Stimulating Hormone Receptor-Dependent CRE-Luciferase Reporter Gene Assay for the Identification of Follicle-Stimulating Hormone (FSH) Antagonists
This procedure was used to identify and determine the relative potencies of human FSH receptor antagonists using a Chinese hamster ovarian cell line that stably produces the human FSH receptor and a luciferase reporter gene regulated by cAMP response elements.
The compounds were subsequently diluted in DMSO to working dilutions of 1 and 20 or 30 mM for 2-dose testing format and 1 μM-10 mM for dose-response format. The DMSO dilutions were diluted 500-fold in sterile growth medium [D-MEM/F-12 (GIBCO/BRL; Grand Island N.Y.) containing 15 mM HEPES, 2 mM 1-glutamine, pyridoxine hydrochloride, phenol red and 5% FetalClone II (HyClone Laboratories, Inc; Logan, Utah), 0.2% DMSO, 100 units penicillin G/ml, and 100 μg streptomycin sulfate/ml (GIBCO/BRL)]. The concentration of the vehicle in each of the compound dilutions was the same. • Positive Controls: Purified human FSH (>98%) was purchased from Cortex Biochem, Inc. (San Leandro, Calif.) and WAY-162002 (an FSH-R thiazolidinone antagonist) was obtained from the Wyeth Research compound repository. Preparation of Cells
The CHO FSH-R 6CRE-Luc cells (1D7 cells) were obtained from Affymax (Palo Alto, Calif.). These Chinese hamster ovary cells (CHO—K1) were genetically engineered to stably express the recombinant human FSH receptor gene and a luciferase reporter gene under the regulation of 6 copies of a cAMP response element. The cells were plated one day prior to treatment into 96-well white opaque plates at a density of 50,000 cells/100 μl/well in growth medium. On the day of treatment, the growth medium was removed from the wells by aspiration and 50 μl of fresh growth medium was added to each well. The cells were incubated at 37° C. in a humidified incubator with 5% CO2/95% air.
The treated cells were incubated for 4 hours at 37° C. in a humidified incubator with 5% CO2/95% air. At the end of-the incubation period, luciferase activity was measured by chemiluminescence using a commercially available kit (LucScreen, Tropix, Inc., Bedford, Mass.) according to the manufacturer's specifications, except that Buffer 1 and Buffer 2 were mixed together in equal proportion prior to the addition of 100 μl of the combined reagents to each well. Chemiluminescence was detected using a luminometer (EG & G Berthold Microlumat LB 96 P, Wallac, Gaithersburg, Md.) with chemiluminescence measured for 1 sec/well. Background luminescence was measured for each well prior to the addition of the LucScreen reagent.
In the 96-well 2-dose format, each compound was tested in duplicate at each dose. […] One plate was used to test a maximum of 22 compounds.
The EC50 of purified human FSH alone was tested in triplicate with each test compound. The doses chosen to test each compound were extrapolated from the initial 2-dose screening process. Along with the test compounds, purified human FSH was also tested in a dose response (0.03, 0.1, 0.3, 1, 3, 10, and 30 ng/ml) for a positive control and quality control. One plate was used for 3 test compounds and the FSH positive control.
Luciferase activity is expressed as relative light units/sec/well. Luciferase activity in antagonist was compared to the appropriate negative and positive controls. For 2-dose testing, results are reported as luciferase activity and are expressed as % inhibition of the response obtained from the EC50 of FSH. For dose-response testing, results are reported as IC50 values. Data were analyzed statistically by one-way analysis of variance with appropriate weighting and transformation and relevant paired test as determined by Biometrics (Wyeth Research, Princeton, N.J.). IC50 values were calculated using the Stat/Excel program developed by Biometrics with appropriate weighting and transformation.
Background: Reporter assays use an easily measured gene product as a stand-in for the process of interest.

Molecules are shown by their SMILES.

One may read the IC50 as the concentration needed to halve the response being measured.

As to `COc1ccccc1-c1ccc(C(=O)N2Cc3ccc(C(=O)CCc4cccnc4)n3Cc3ccccc32)cc1` [Example 3, 1-{10-[(2′-Methoxy-1,1′-biphenyl-4-yl)carbonyl]-10,11-dihydro-5H-pyrrolo[2,1-c][1,4]benzodiazepin-3-yl}-3-pyridin-3-ylpropan-1-one], the concentration for half-maximal inhibition (IC50) against hFSH-R was found to be 2 µM; on human FSH receptor it was 6.82 µM. Besides, on hFSH-R (read-out: cAMP % efficacy), the Emax was determined as 78%.

Source of the values: patent publication US20060258644A1, “Pyrrolobenzodiazepines and heteroaryl, aryl and cycloalkylamino ketone derivatives as follicle stimulating hormone receptor (FSH-R) antagonists” (Wyeth, priority 2005, published 2006).
